# Target: T1, human liver FBPase (Homo sapiens, UniProt P09467)
# T1 construct: made in house; host or cells: E. coli
# T1 sequence (P09467 2-338 limits assumed): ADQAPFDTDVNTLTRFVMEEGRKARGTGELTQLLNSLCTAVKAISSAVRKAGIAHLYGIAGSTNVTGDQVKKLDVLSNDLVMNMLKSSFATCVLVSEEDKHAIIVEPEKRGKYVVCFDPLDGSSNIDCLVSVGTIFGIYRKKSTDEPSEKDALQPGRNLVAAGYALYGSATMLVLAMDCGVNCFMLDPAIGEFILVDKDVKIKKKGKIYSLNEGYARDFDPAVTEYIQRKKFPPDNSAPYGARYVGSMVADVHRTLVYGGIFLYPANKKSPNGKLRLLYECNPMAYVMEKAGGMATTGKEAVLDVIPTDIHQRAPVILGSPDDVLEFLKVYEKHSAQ
# Experiment: FBPase assay (inorganic phosphate release, malachite green)
# Format: biochemical
# Conditions: recombinant human liver FBPase, 50 μM fructose-1,6-bisphosphate, read-out at 620 nm
# Experimental: The following tests were carried out for evaluating the inhibitory activity of the compounds of the present invention against human liver FBPase (Swissprot Data base reference PO9467, entry F16P_HUMAN).
# Enzyme preparation: Human liver FBPase cDNA (NM_000507) was purchased from Origene Technologies, Inc, subcloned in a vector for expression in E. Coli., and sequenced. Recombinant human liver FBPase (hlFBPase) was purified according to the following protocol that uses heat denaturation similarly to that described by El-Maghrabi et. al. [El-Maghrabi, M. R. et al. “Isolation of a human liver fructose-1,6-bisphosphatase cDNA and expression of the protein in Escherichia coli.” J Biol Chem 268:9466-9472, 1993.]. […] Purity of the enzyme preparation was >90% as assessed by Mass spectrometry.
# In vitro activity: Recombinant human liver FBPase (hlFBPase) activity was assayed through measuring the inorganic phosphate release that results from the hydrolysis of Fructose-1,6-bisphosphate by the enzyme. […] Anal. Biochem., 171:266-270, 1988], inorganic phosphate can be readily quantified by spectrophotometry at 620 nm after complexation with ammonium molybdate/malachite green reagent. […] Under these conditions, the assay was linear with time and able to detect FBPase inhibition after spectrophotometric read-out at 620 nm.
row,IC50 [nM],SMILES
1,250,"Cc1cccc(S(=O)(=O)NC(=O)Nc2ncc(Br)s2)c1 [Example 5, N-[(5-Bromo-1,3-thiazol-2-yl)carbamoyl]-3-methylbenzenesulfonamide]"
2,65,"COc1ccc(-c2sc(S(=O)(=O)NC(=O)Nc3ncc(Br)s3)cc2C)cc1 [Example 52, N-[(5-Bromo-1,3-thiazol-2-yl)carbamoyl]-5-(4-methoxyphenyl)-4-methyl-thiophene-2-sulfonamide]"

# From patent US7868030B2, “FBPase inhibitors for diabetes” (Hoffmann-La Roche Inc., priority 2006, dated 2011)
